According to ChEMBL document CHEMBL1144896 (2003):

Experiments:
BJ [1] = assay: hTERT-SEAP (Human telomerase reverse transcriptase-SEAP) activity in immortalized hTERT-BJI at 19 uM concentration and level of cell viability determined in MTT assay; format: functional
BJ [2] = assay: hTERT-SEAP (Human telomerase reverse transcriptase-SEAP) activity in immortalized hTERT-BJI at 190.0 uM concentration and level of cell viability determined in MTT assay; format: functional
BJ [3] = assay: Compound was tested for human telomerase reverse transcriptase-SEAP (hTERT-SEAP) activity in immortalized hTERT-BJI at 19 uM concentration; format: functional
BJ [4] = assay: Compound was tested for human telomerase reverse transcriptase-SEAP (hTERT-SEAP) activity in immortalized hTERT-BJI at 190.0 uM concentration; format: functional
NCI-H1299 [5] = assay: Compound was tested for human telomerase reverse transcriptase-SEAP (hTERT-SEAP) activity in non-small cell lung cancer H1299 cell at 1.9 uM concentration; format: functional
NCI-H1299 [6] = assay: Compound was tested for human telomerase reverse transcriptase-SEAP (hTERT-SEAP) activity in non-small cell lung cancer H1299 cell at 19 uM concentration; format: functional
NCI-H1299 [7] = assay: hTERT-SEAP (Human telomerase reverse transcriptase-SEAP) activity in non-small cell lung cancer H1299 cell at 1.9 uM concentration and level of cell viability determined in MTT assay; format: functional
NCI-H1299 [8] = assay: hTERT-SEAP (Human telomerase reverse transcriptase-SEAP) activity in non-small cell lung cancer H1299 cell at 19 uM concentration and level of cell viability determined in MTT assay; format: functional
NCI-H1299 [9] = assay: Compound was tested for human telomerase reverse transcriptase-SEAP (hTERT-SEAP) activity in non-small cell lung cancer H1299 cell at 190.0 uM concentration; format: functional
NCI-H1299 [10] = assay: hTERT-SEAP (Human telomerase reverse transcriptase-SEAP) activity in non-small cell lung cancer H1299 cell at 190.0 uM concentration and level of cell viability determined in MTT assay; format: functional
BJ [11] = assay: hTERT-SEAP (Human telomerase reverse transcriptase-SEAP) activity in immortalized hTERT-BJI at 2.2 uM concentration and level of cell viability determined in MTT assay; format: functional
BJ [12] = assay: Compound was tested for cytomegalovirus or (pPCMV-SEAP) activity in immortalized hTERT-BJ1 at 2.2 uM concentration; format: functional, Homo sapiens
BJ [13] = assay: Compound was tested for cytomegalovirus or (pPCMV-SEAP) activity in immortalized hTERT-BJ1 at 22 uM concentration; format: functional, Homo sapiens
BJ [14] = assay: Compound was tested for cytomegalovirus or (pPCMV-SEAP) activity in immortalized hTERT-BJ1 at 220 uM concentration; format: functional, Homo sapiens
BJ [15] = assay: Compound was tested for human telomerase reverse transcriptase-SEAP (hTERT-SEAP) activity in immortalized hTERT-BJI at 2.2 uM concentration; format: functional
BJ [16] = assay: Compound was tested for human telomerase reverse transcriptase-SEAP (hTERT-SEAP) activity in immortalized hTERT-BJI at 22 uM concentration; format: functional
BJ [17] = assay: Compound was tested for human telomerase reverse transcriptase-SEAP (hTERT-SEAP) activity in immortalized hTERT-BJI at 220.0 uM concentration; format: functional
BJ [18] = assay: hTERT-SEAP (Human telomerase reverse transcriptase-SEAP) activity in immortalized hTERT-BJI at 22 uM concentration and level of cell viability determined in MTT assay; format: functional
BJ [19] = assay: hTERT-SEAP (Human telomerase reverse transcriptase-SEAP) activity in immortalized hTERT-BJI at 220.0 uM concentration and level of cell viability determined in MTT assay; format: functional
BJ [20] = assay: pPCMV-SEAP (cytomegalovirus-SEAP) activity in immortalized hTERT-BJ1 at 220 uM concentration and level of cell viability determined in MTT assay; format: functional, Homo sapiens
BJ [21] = assay: pPCMV-SEAP (cytomegalovirus-SEAP) activity in immortalized hTERT-BJ1 at 2.2 uM concentration and level of cell viability determined in MTT assay; format: functional, Homo sapiens
BJ [22] = assay: pPCMV-SEAP (cytomegalovirus-SEAP) activity in immortalized hTERT-BJ1 at 22 uM concentration and level of cell viability determined in MTT assay; format: functional, Homo sapiens
NCI-H1299 [23] = assay: hTERT-SEAP (Human telomerase reverse transcriptase-SEAP) activity in non-small cell lung cancer H1299 cell at 22 uM concentration and level of cell viability determined in MTT assay; format: functional
NCI-H1299 [24] = assay: hTERT-SEAP (Human telomerase reverse transcriptase-SEAP) activity in non-small cell lung cancer H1299 cell at 220.0 uM concentration and level of cell viability determined in MTT assay; format: functional
NCI-H1299 [25] = assay: Compound was tested for human telomerase reverse transcriptase-SEAP (hTERT-SEAP) activity in non-small cell lung cancer H1299 cell at 22 uM concentration; format: functional
NCI-H1299 [26] = assay: Compound was tested for human telomerase reverse transcriptase-SEAP (hTERT-SEAP) activity in non-small cell lung cancer H1299 cell at 220.0 uM concentration; format: functional
NCI-H1299 [27] = assay: Compound was tested for human telomerase reverse transcriptase-SEAP (hTERT-SEAP) activity in non-small cell lung cancer H1299 cell at 2.2 uM concentration; format: functional
NCI-H1299 [28] = assay: hTERT-SEAP (Human telomerase reverse transcriptase-SEAP) activity in non-small cell lung cancer H1299 cell at 2.2 uM concentration and level of cell viability determined in MTT assay; format: functional
NCI-H1299 [29] = assay: (§1) Compound was tested for human telomerase reverse transcriptase-SEAP (hTERT-SEAP) activity in non-small cell lung cancer H1299 cell at 2.3 uM concentration; format: functional
BJ [30] = assay: hTERT-SEAP (Human telomerase reverse transcriptase-SEAP) activity in immortalized hTERT-BJI at 230.0 uM concentration and level of cell viability determined in MTT assay; format: functional
BJ [31] = assay: Compound was tested for human telomerase reverse transcriptase-SEAP (hTERT-SEAP) activity in immortalized hTERT-BJI at 23 uM concentration; format: functional
BJ [32] = assay: Compound was tested for human telomerase reverse transcriptase-SEAP (hTERT-SEAP) activity in immortalized hTERT-BJI at 230.0 uM concentration; format: functional
BJ [33] = assay: hTERT-SEAP (Human telomerase reverse transcriptase-SEAP) activity in immortalized hTERT-BJI at 23 uM concentration and level of cell viability determined in MTT assay; format: functional
NCI-H1299 [34] = assay: (§2) hTERT-SEAP (Human telomerase reverse transcriptase-SEAP) activity in non-small cell lung cancer H1299 cell at 2.3 uM concentration and level of cell viability determined in MTT assay; format: functional
NCI-H1299 [35] = assay: hTERT-SEAP (Human telomerase reverse transcriptase-SEAP) activity in non-small cell lung cancer H1299 cell at 23 uM concentration and level of cell viability determined in MTT assay; format: functional
NCI-H1299 [36] = assay: hTERT-SEAP (Human telomerase reverse transcriptase-SEAP) activity in non-small cell lung cancer H1299 cell at 230.0 uM concentration and level of cell viability determined in MTT assay; format: functional
NCI-H1299 [37] = assay: Compound was tested for human telomerase reverse transcriptase-SEAP (hTERT-SEAP) activity in non-small cell lung cancer H1299 cell at 23 uM concentration; format: functional
NCI-H1299 [38] = assay: Compound was tested for human telomerase reverse transcriptase-SEAP (hTERT-SEAP) activity in non-small cell lung cancer H1299 cell at 230.0 uM concentration; format: functional
NCI-H1299 [39] = assay: as §2; format: functional; remark: listed apart in the source
NCI-H1299 [40] = assay: as §1; format: functional; remark: listed apart in the source
BJ [41] = assay: hTERT-SEAP (Human telomerase reverse transcriptase-SEAP) activity in immortalized hTERT-BJI at 2.8 uM concentration and level of cell viability determined in MTT assay; format: functional
BJ [42] = assay: hTERT-SEAP (Human telomerase reverse transcriptase-SEAP) activity in immortalized hTERT-BJI at 28.0 uM concentration and level of cell viability determined in MTT assay; format: functional
BJ [43] = assay: hTERT-SEAP (Human telomerase reverse transcriptase-SEAP) activity in immortalized hTERT-BJI at 280.0 uM concentration and level of cell viability determined in MTT assay; format: functional
BJ [44] = assay: Compound was tested for human telomerase reverse transcriptase-SEAP (hTERT-SEAP) activity in immortalized hTERT-BJI at 28.0 uM concentration; format: functional
BJ [45] = assay: Compound was tested for human telomerase reverse transcriptase-SEAP (hTERT-SEAP) activity in immortalized hTERT-BJI at 280.0 uM concentration; format: functional
BJ [46] = assay: Compound was tested for human telomerase reverse transcriptase-SEAP (hTERT-SEAP) activity in immortalized hTERT-BJI at 2.8 uM concentration; format: functional
NCI-H1299 [47] = assay: hTERT-SEAP (Human telomerase reverse transcriptase-SEAP) activity in non-small cell lung cancer H1299 cell at 2.8 uM concentration and level of cell viability determined in MTT assay; format: functional
NCI-H1299 [48] = assay: Compound was tested for human telomerase reverse transcriptase-SEAP (hTERT-SEAP) activity in non-small cell lung cancer H1299 cell at 28.0 uM concentration; format: functional
NCI-H1299 [49] = assay: Compound was tested for human telomerase reverse transcriptase-SEAP (hTERT-SEAP) activity in non-small cell lung cancer H1299 cell at 280.0 uM concentration; format: functional
NCI-H1299 [50] = assay: hTERT-SEAP (Human telomerase reverse transcriptase-SEAP) activity in non-small cell lung cancer H1299 cell at 28 uM concentration and level of cell viability determined in MTT assay; format: functional
NCI-H1299 [51] = assay: hTERT-SEAP (Human telomerase reverse transcriptase-SEAP) activity in non-small cell lung cancer H1299 cell at 280.0 uM concentration and level of cell viability determined in MTT assay; format: functional
NCI-H1299 [52] = assay: Compound was tested for human telomerase reverse transcriptase-SEAP (hTERT-SEAP) activity in non-small cell lung cancer H1299 cell at 2.8 uM concentration; format: functional

SMILES | Relative viability (BJ [11]) [%] | Relative SEAP activity (BJ [12]) [%] | Relative SEAP activity (BJ [13]) [%] | Relative SEAP activity (BJ [14]) [%] | Relative SEAP activity (BJ [15]) [%] | Relative SEAP activity (BJ [16]) [%] | Relative SEAP activity (BJ [17]) [%] | Relative viability (BJ [18]) [%] | Relative viability (BJ [19]) [%] | Relative viability (BJ [20]) [%] | Relative viability (BJ [21]) [%] | Relative viability (BJ [22]) [%] | Relative viability (NCI-H1299 [23]) [%] | Relative viability (NCI-H1299 [24]) [%] | Relative SEAP activity (NCI-H1299 [25]) [%] | Relative SEAP activity (NCI-H1299 [26]) [%] | Relative SEAP activity (NCI-H1299 [27]) [%] | Relative viability (NCI-H1299 [28]) [%] | other results
O=C(Oc1cccc2c1C(=O)c1cccc(OC(=O)c3ccc(Cl)cc3)c1C2=O)c1ccc(Cl)cc1 | – | – | – | – | – | – | – | – | – | – | – | – | – | – | – | – | – | – | Relative viability (BJ [1]): 89%; Relative viability (BJ [2]): 48%; Relative SEAP activity (BJ [3]): 123%; Relative SEAP activity (BJ [4]): 107%; Relative SEAP activity (NCI-H1299 [5]): 106%; Relative SEAP activity (NCI-H1299 [6]): 106%; Relative viability (NCI-H1299 [7]): 91%; Relative viability (NCI-H1299 [8]): 57%; Relative SEAP activity (NCI-H1299 [9]): 97%; Relative viability (NCI-H1299 [10]): 31%
O=C1c2cccc(Sc3nccc(O)n3)c2C(=O)c2cccc(Sc3nccc(O)n3)c21 | 104 | 112 | 105 | 120 | 93 | 116 | 145 | 106 | 89 | 78 | 107 | 118 | 95 | 51 | 97 | 93 | 92 | 99 | –
O=C1c2cccc(Sc3ccncc3)c2C(=O)c2cccc(Sc3ccncc3)c21 | – | – | – | – | – | – | – | – | – | – | – | – | – | – | – | – | – | – | Relative SEAP activity (NCI-H1299 [29]): 98%; Relative viability (BJ [30]): 55%; Relative SEAP activity (BJ [31]): 133%; Relative SEAP activity (BJ [32]): 121%; Relative viability (BJ [33]): 91%; Relative viability (NCI-H1299 [34]): 112%; Relative viability (NCI-H1299 [35]): 45%; Relative viability (NCI-H1299 [36]): 29%; Relative SEAP activity (NCI-H1299 [37]): 103%; Relative SEAP activity (NCI-H1299 [38]): 89%; Relative viability (NCI-H1299 [39]): 79%; Relative SEAP activity (NCI-H1299 [40]): 104%
CCCSc1cccc2c1C(=O)c1cccc(SCCC)c1C2=O | – | – | – | – | – | – | – | – | – | – | – | – | – | – | – | – | – | – | Relative viability (BJ [41]): 103%; Relative viability (BJ [42]): 97%; Relative viability (BJ [43]): 39%; Relative SEAP activity (BJ [44]): 110%; Relative SEAP activity (BJ [45]): 122%; Relative SEAP activity (BJ [46]): 132%; Relative viability (NCI-H1299 [47]): 96%; Relative SEAP activity (NCI-H1299 [48]): 29%; Relative SEAP activity (NCI-H1299 [49]): 17%; Relative viability (NCI-H1299 [50]): 44%; Relative viability (NCI-H1299 [51]): 25%; Relative SEAP activity (NCI-H1299 [52]): 73%
Nc1ccccc1Sc1cccc2c1C(=O)c1cccc(Sc3ccccc3N)c1C2=O | 103 | 103 | 102 | 122 | 136 | 141 | 115 | 107 | 25 | 48 | 108 | 109 | 50 | 14 | 96 | 59 | 108 | 94 | –
